Assay results published in patent US20080262047A1, “Ppar-Gamma Agonists for Improvement of Cognitive Function in Apoe4 Negative Patients” (priority 2005, published 2008).
Entries after “also recorded” stand apart in the source; their conditions may differ.

What was measured:
[1] = system: patients diagnosed with mild to moderate AD; test: Disability Assessment for Dementia (DAD) in Alzheimer's patients; format: in vivo, human; conditions: week 24
Method: (§1) Patients received either placebo or one of three dosage levels of extended release rosiglitazone provided once daily (2 mg, 4 mg and 8 mg tablets as described in Example 1). Patients were examined using the cognitive Alzheimer's Disease Assessment Scale (ADAS-cog; for further information see Rosen W G et al. Am. J. Psychiatry. 1984 141:1356-1364) and the Clinician's Interview-Based Impression of Change with caregiver information (CIBIC+; for further information see Knopman D S et al. Neurology 1994 44: 2315-2321); and secondary assessments were performed using: the Disability Assessment for Dementia (DAD, for further information see Gelinas L et al. Am J Occup Ther 1999 53: 471-81) and the Neuropsychiatric Inventory test (NPI, for further information see Cummings et al (1994) Neurology 44, 2308-2314) at the start of the study (baseline) and during the course of the study (after 8, 16 and 24 weeks of treatment).
Similar results were identified using the Disability Assessment for Dementia (DAD) test (Gelinas L et al. Am J Occup Ther 1999 53: 471-81). A prospectively defined test for interaction between APOE4 carriage status and DAD scores at week 24 was significant (P=0.006).

[2] = system: dopaminergic cells; conditions: acetaldehyde, MPTP; cited from earlier work
[3] = system: patients diagnosed with mild to moderate AD; test: Neuropsychiatric Inventory (NPI) test in Alzheimer's patients; format: in vivo, human; conditions: week 24
Method: as §1
Similar results were identified using the Neuropsychiatric Inventory (NPI) test (Cummings et al (1994) Neurology 44, 2308-2314). A prospectively defined test for interaction between APOE4 carriage status and NPI scores at week 24 was significant ([…]).

[4] = system: patients diagnosed with mild to moderate AD; test: CIBIC+ (Clinician's Interview-Based Impression of Change with caregiver information) in Alzheimer's patients; format: in vivo, human
Method: (§2) Analysis for the full intent to treat (ITT) population was performed on 511 subjects who were randomly allocated into one of four specific treatment regimes. Genotyping analysis was performed on 63% (323/511) of the ITT population.
(§3) Patient population included Caucasian males and females between 50-85 years of age who had been diagnosed with mild to moderate AD, were not receiving any medications which could adversely prejudice the study (e.g. PPAR-gamma agonists or conventional AD medicaments) or had any other potentially prejudicial ailments (e.g. diabetes or major psychiatric disorders).
as §1
(§4) APOE genotype was determined using the TaqMan PCR-based method of McLeod et al 2001 infra.
(§5) All statistics reflect last observed assessment carried forward (LOCF) measurements.
Higher CIBIC+ scores indicate a greater level of decline with scores below 4 denoting clinical improvement and scores above 4 denoting clinical decline.

[5] = system: patients diagnosed with mild to moderate AD; test: ADAS-cog (cognitive Alzheimer's Disease Assessment Scale) in Alzheimer's patients; format: in vivo, human; conditions: for Cognitive function (ADAS-cog), in words / ADAS-cog change, in words: 24 weeks; for ADAS-cog change from baseline (FIG. 3), in words: course of the study
Method: as §2, §3, §1, §4, §5
It should be noted that in the case of ADAS-cog higher scores indicate reduced cognitive function.

[6] = system: individuals with mild cognitive impairment; conditions: at three years; cited from earlier work
[7] = system: patients with moderate to severe AD; conditions: cited from earlier work
[8] = system: AD and MCI; conditions: clinical trial; cited from earlier work

CN(CCOc1ccc(CC2SC(=O)NC2=O)cc1)c1ccccn1 (stereo not drawn) [Rosi, 5-[4-[2-(N-methyl-N-(2-pyridyl)amino)ethoxy]benzyl]thiazolidine-2,4-dione]
DAD, in words ([1]; APOE4+ subjects): demonstrated no improvement | DAD, in words ([1]; APOE4− subjects): demonstrated improvement on DAD | Protection of dopaminergic cells from toxic insults [2]: can protect dopaminergic cells | NPI, in words ([3]; APOE4+ subjects): demonstrated no improvement | NPI, in words ([3]; APOE4− subjects): demonstrated improvement on NPI | CIBIC+, in words ([4]; APOE4 heterozygotes, 2 mg, 24 weeks): decline | CIBIC+, in words ([4]; APOE4 heterozygotes, 4 mg, 24 weeks): Less decline | CIBIC+, in words ([4]; APOE4 heterozygotes, 8 mg, 24 weeks): slight improvement | CIBIC+, in words ([4]; APOE4 homozygotes, 24 weeks, compared to placebo): slight improvement | CIBIC+, in words ([4]; APOE4− patients, 24 week period): slight improvement | CIBIC+ difference between treatment groups and placebo, in words ([4]; ITT population, 24 weeks): did not lead to a distinguishable difference | CIBIC+ model adjusted, LSMean (SE) ([4]; Table 13a (updated analysis, additional subjects), PGx ITT population, APOE4 copies 1, Rosi 8 mg (n = 23), after 24 weeks): 3.70 (0.24) | ADAS-cog change from baseline (FIG. 2), in words ([5]; APOE4+ individuals, 2 mg, 4 mg or 8 mg, after 8 weeks): slight improvement | ADAS-cog change from baseline (FIG. 2), in words ([5]; APOE4+ individuals, 2 mg, after 16 weeks): greater decline than the placebo | ADAS-cog change from baseline (FIG. 2), in words ([5]; APOE4+ individuals, 4 mg and 8 mg, after 16 weeks, versus placebo): the same or better clinical status | ADAS-cog change from baseline (FIG. 2), in words ([5]; APOE4+ individuals, all three treatment arms, after 24 weeks): finish with a clinical decline | Cognitive function (ADAS-cog), in words ([5]; APOE4 heterozygotes (single APOE4 allele), listed as rosiglitazone): do not show any recognisable trend; also recorded: stabilisation in cognitive function | ADAS-cog change, in words ([5]; APOE4 heterozygotes, 2 mg): some decline | ADAS-cog change, in words ([5]; APOE4 heterozygotes, 4 mg and 8 mg): little change | ADAS-cog change from baseline (FIG. 3), in words ([5]; APOE4 heterozygotes, higher doses (4, 8 mg)): remained close to the baseline | Cognitive function (ADAS-cog), in words ([5]; APOE4 homozygotes (two APOE4 alleles), listed as rosiglitazone): relatively large positive change in ADAS-cog scores; also recorded: may experience a clinical decline | ADAS-cog change from baseline (FIG. 3), in words ([5]; APOE4 homozygotes): experienced a clinical decline | ADAS-cog change from baseline (FIG. 2), in words ([5]; APOE4− individuals, 2 mg, 4 mg or 8 mg, all time points (8, 16 and 24 weeks)): marked improvement | Cognitive function (ADAS-cog), in words ([5]; APOE4− patients (no APOE4 allele), listed as rosiglitazone): general trend of improvement in cognitive function; also recorded: clinically relevant improvement in cognitive function relative to placebo | ADAS-cog effect of treatment, in words ([5]; ITT population as a whole, 2, 4, 8 mg, listed as rosiglitazone): trend is not statistically significant; also recorded: non-statistically significant trend to a general improvement

COc1cc2c(cc1OC)C(=O)C(CC1CCN(Cc3ccccc3)CC1)C2 (stereo not drawn) [donepezil]
Rate at which patients developed AD [6]: no separation between groups

CC12CC3CC(C)(C1)CC(N)(C3)C2 [memantine]
Adverse effects [7]: low incidence of adverse effects | Rate of deterioration [7]: significantly retard the rate of deterioration

CCc1ccc(CCOc2ccc(CC3SC(=O)NC3=O)cc2)nc1 (stereo not drawn) [pioglitazone, 5-[4-[2-(5-ethyl-2-pyridyl)ethoxy]benzyl]thiazolidine-2,4-dione]
Protection of dopaminergic cells from toxic insults [2]: can protect dopaminergic cells

CS(=O)(=O)c1ccc(C2=C(c3ccccc3)C(=O)OC2)cc1 [rofecoxib]
Efficacy in AD and MCI [8]: failed to show any efficacy
